The target of this test is eqBChE (Equus caballus, UniProt P81908). Put plainly: biochemical. The following applies: read-out: BChE % Inhibition ± SD @ 1 μM, eqBChE, 1 μM.

The structures appear in SMILES notation.

Chain of eqBChE (P81908 whole entry): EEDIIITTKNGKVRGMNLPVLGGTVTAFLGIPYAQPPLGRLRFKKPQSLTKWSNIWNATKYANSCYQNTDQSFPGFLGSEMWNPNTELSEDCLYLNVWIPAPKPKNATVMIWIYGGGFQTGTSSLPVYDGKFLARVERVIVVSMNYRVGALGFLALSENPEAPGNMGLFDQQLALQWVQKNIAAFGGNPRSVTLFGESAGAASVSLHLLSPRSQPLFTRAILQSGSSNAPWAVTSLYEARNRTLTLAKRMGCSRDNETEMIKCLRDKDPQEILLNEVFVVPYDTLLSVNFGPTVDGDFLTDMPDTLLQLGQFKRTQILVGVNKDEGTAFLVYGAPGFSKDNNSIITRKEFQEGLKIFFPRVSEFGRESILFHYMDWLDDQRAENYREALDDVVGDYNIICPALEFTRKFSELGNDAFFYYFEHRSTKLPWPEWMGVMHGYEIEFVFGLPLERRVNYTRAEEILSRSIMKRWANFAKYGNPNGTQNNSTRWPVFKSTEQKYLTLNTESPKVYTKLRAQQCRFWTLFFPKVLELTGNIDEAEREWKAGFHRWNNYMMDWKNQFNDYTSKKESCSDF

For the compound `COc1cc(/C=C/c2cc[n+](Cc3ccccc3)cc2)cc(OC)c1` [Compound 7a, (E)-1-Benzyl-4-(3,5-dimethoxystyryl)pyridin-1-ium bromide], the inhibition at 1 µM worked out at 20%. As to `COc1ccc2cc(/C=C/c3cc[n+](Cc4ccccc4)cc3)ccc2c1` [Compound 7aq, (E)-1-Benzyl-4-(2-(6-methoxynaphthalen-2-yl)vinyl)pyridin-1-ium bromide], the inhibition at 1 µM came out at 60%.

For the origin of these results see article PMC10210183 (ACS Omega, 2023).
